The test system of experiment [1] is C2C12alpha10. In words: In vitro cytotoxicity (WST-1), C2C12alpha10. It is filed as cell-based, mouse. The note with it: monolayer, 5 days. As for the experimental part:
(§1) • Aim: To evaluate the in vitro efficacy of Th-Ab12-ADC in different cell lines. Material and Methods: Cells were seeded either as monolayer (C2C12alpha10, C2C12alpha11 and A204) or as spheres (BT549, Hs578T, U3046MG, U3054MG and SJSA-1) and treated with the IgG1 isotype control Ctrl-ADC or Th-Ab12-ADC at different concentrations ([…]) for 5 days (C2C12alpha10, C2C12alpha11, A204 and SJSA-1) or 10 days (BT549, Hs578T, U3046MG and U3054MG). On the day of termination, the cells were incubated for 3-4 hours with WST-1, which measures the viable cells, and the plates were read at OD450 nm wavelength via SpectraMax. The dose response curves and IC50 values were generated in GraphPad Prism 9. The WST-1 assay is based on the cleavage of tetrazolium salt WST-1 for formazan by cellular mitochondrial dehydrogenases. […] The differences in IC50 values between control ADC and Th-Ab12-ADC supports a relatively large therapeutic window for each cell line (Table 3).
In general terms: Formazan colour is commonly taken as a measure of viable cells.

In experiment [2] the test system is C2C12alpha11. The experiment is described as follows: In vitro cytotoxicity (WST-1), C2C12alpha11. It is filed as cell-based, mouse. The note with it: monolayer, 5 days. As to the method:
as §1

Experiment [3] has as its system BT549. In words: In vitro cytotoxicity (WST-1), BT549. Conditions: spheres, 10 days. It is filed as cell-based. As for the experimental part: as §1
Experiment [4] deals with Hs578T. In words: In vitro cytotoxicity (WST-1), Hs578T. It is filed as cell-based. The note with it: spheres, 10 days. As to the method:
as §1

Experiment [5] relates to U3046MG. In words: In vitro cytotoxicity (WST-1), U3046MG. It counts as cell-based, human. The note with it: spheres, 10 days. As to the method: as §1
The test system of experiment [6] is U3054MG. In words: In vitro cytotoxicity (WST-1), U3054MG. It counts as cell-based, human. The note with it: spheres, 10 days. As for the experimental part: as §1
For experiment [7], the system named is A204. In words: In vitro cytotoxicity (WST-1), A204. Conditions: monolayer, 5 days. It is filed as cell-based. As to the method: as §1
Experiment [8] deals with SJSA-1. The experiment is described as follows: In vitro cytotoxicity (WST-1), SJSA-1. It is filed as cell-based. Conditions: spheres, 5 days. As for the experimental part: as §1
The target of experiment [9] is T1, integrin alpha11 (C2C12alpha11 cells) (human, UniProt Q9UKX5).
T1 chain: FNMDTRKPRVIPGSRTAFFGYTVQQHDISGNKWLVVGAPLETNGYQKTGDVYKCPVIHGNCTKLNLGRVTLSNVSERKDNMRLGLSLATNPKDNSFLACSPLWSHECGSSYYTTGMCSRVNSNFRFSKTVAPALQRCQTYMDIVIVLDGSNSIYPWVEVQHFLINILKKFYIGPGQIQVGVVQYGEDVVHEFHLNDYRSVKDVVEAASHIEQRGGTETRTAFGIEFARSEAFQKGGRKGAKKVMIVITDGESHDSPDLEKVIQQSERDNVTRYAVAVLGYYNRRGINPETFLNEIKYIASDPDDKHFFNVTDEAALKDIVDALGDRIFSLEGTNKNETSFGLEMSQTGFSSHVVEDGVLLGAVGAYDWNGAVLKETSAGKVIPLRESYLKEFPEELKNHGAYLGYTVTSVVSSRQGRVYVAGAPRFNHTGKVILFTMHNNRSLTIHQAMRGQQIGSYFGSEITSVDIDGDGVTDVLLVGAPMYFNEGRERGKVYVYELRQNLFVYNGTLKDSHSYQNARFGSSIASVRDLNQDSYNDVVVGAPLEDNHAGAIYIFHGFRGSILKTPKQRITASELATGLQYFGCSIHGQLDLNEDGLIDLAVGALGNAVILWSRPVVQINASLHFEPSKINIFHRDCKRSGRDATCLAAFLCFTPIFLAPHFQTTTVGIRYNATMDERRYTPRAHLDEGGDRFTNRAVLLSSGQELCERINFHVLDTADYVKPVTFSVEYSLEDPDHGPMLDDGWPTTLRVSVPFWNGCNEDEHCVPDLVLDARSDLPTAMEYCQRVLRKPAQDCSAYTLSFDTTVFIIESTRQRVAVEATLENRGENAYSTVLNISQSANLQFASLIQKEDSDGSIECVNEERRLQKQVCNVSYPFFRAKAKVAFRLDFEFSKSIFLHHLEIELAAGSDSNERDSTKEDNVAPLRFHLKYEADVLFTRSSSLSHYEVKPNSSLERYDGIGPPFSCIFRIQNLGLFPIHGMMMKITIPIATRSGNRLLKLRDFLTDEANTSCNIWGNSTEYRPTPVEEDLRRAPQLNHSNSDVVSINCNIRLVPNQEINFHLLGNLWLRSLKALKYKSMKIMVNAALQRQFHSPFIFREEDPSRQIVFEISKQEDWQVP
The experiment is described as follows: FACS, C2C12alpha11 cells. For orientation: Flow cytometry measures light scatter and fluorescence of single cells or particles in a stream.

The target in experiment [10] is T2, integrin alpha10 (alpha10beta1, cell-expressed) (human, UniProt O75578).
T2 chain: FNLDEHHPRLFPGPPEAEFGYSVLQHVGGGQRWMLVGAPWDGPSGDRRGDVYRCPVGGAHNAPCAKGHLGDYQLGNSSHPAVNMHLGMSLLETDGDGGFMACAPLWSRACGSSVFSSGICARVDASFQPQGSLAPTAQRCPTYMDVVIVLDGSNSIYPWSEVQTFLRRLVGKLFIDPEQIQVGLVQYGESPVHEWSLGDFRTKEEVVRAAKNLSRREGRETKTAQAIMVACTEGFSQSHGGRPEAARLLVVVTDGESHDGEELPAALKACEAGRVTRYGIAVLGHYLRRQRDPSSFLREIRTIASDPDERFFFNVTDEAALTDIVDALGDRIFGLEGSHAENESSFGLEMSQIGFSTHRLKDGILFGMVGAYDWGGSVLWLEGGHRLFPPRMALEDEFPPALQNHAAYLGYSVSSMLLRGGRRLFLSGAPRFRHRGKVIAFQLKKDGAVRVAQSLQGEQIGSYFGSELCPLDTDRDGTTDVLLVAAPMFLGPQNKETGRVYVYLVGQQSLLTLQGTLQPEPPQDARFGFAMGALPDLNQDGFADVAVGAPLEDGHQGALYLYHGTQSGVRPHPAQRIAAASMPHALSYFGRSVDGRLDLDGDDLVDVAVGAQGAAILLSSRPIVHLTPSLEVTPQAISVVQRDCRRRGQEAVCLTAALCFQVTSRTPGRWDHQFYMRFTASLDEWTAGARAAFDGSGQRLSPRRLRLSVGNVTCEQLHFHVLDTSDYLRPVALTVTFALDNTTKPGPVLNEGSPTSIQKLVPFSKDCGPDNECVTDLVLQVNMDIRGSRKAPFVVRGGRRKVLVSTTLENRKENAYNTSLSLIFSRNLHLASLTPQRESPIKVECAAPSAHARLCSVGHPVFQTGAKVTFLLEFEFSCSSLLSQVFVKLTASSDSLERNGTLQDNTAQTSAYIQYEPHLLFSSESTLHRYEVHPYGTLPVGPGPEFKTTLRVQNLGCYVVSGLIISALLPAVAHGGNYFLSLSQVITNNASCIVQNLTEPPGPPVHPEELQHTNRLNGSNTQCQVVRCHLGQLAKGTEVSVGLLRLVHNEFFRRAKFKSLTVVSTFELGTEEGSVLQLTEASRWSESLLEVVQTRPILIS
The experiment is described as follows: FACS, upper end of range 0.9-2.69 nM over seven cell lines.

Experiment [11] concerns the target T2, integrin alpha10 (alpha10beta1, …). The experiment is described as follows: FACS, lower end of range 0.9-2.69 nM over seven cell lines.

Substitutions are numbered along the chain they refer to.

As usually defined, the IC50 is the midpoint of a concentration-inhibition curve. In the case of `COc1cccc2c1C(=O)c1c(O)c3c(c(O)c1C2=O)CC(O)(C(=O)CO)CC3OC1CC2C(OC3C(OC)OCCN23)C(C)O1` [PNU-159682, 3′-deamino-3″-4′-anhydro-[2″(S)-methoxy-3″(R)-hydroxy-4″-morpholinyl]doxorubicin], the IC50 in experiment [1] is 0.027 nM; in experiment [2], 0.018 nM; in experiment [3] it was 1.4 nM; in experiment [4], 0.981 nM; in experiment [5], 0.077 nM; in [6], 0.145 nM. For the same molecule, the 50% inhibitory concentration (IC50) in [7] amounted to 0.023 nM; in experiment [8], 0.077 nM.

B1: Th-Ab15 (antibody, V domains shown)
VH: QVQLVQSGAEVKKPGASVKVSCKTSGYTFTEYYVIWVRQAPGQGLEWLGWIFPGSGRTYYSEKFRGRATITVDKSTSTAYMELSSLRSEDTAVYYCARDNYGSSGKFFAYWGQGTLVTVSS
VL: DVVMTQSPLSLPVTLGQPASISCRSSQSLVHSNGNTYLHWYQQKPGQPPKLLIYKVSNRFSGVPDRFSGSGSGTDFTLKISRVEAEDVGVYYCSQSTHVPYTFGQGTKLEIK
As to B1, the binding result in experiment [9] is “no binding”.

B2: Th-Ab12-ADC (antibody, V domains shown)
VH: B1 VH with V34I, A68V, V72A
VL: B1 VL
modifications: ADC, conjugated to PNU-159682-type payload; constant regions SEQ21 (heavy) and SEQ20 (light)
The term EC50 denotes the concentration needed to bring the measured effect to its halfway point. High values mean a less potent agent, low ones a more potent agent. Consider B2, for which the binding result in experiment [9] is reported as “no binding”. Further, the values for the EC50 in experiment [10] and in [11] were less than 2.69 nM and greater than 0.9 nM, respectively.

B3: Th-Ab12 (antibody, V domains shown)
VH: B1 VH with V34I, A68V, V72A
VL: B1 VL
In the case of B3, in experiment [9], the binding result is reported as “no binding”.

B4: Th-Ab11 (antibody, V domains shown)
VH: B1 VH with V34I, A68V, V72A
VL: B1 VL with Y92F
For B4, the binding result in experiment [9] was “no binding”.

B5: Th-Ab14 (antibody, V domains shown)
VH: B1 VH
VL: B1 VL with Y92F
For the molecule B5, the binding result in experiment [9] is “no binding”.

B6: Th-Ab9 (antibody, V domains shown)
VH: B1 VH with V34I
VL: B1 VL
As to B6, the binding result in [9] is “no binding”.

The record behind these values is patent US20260345803A1, “An Integrin Alpha10 Antibody Drug Conjugate” (Targinta AB, priority 2022, published 2026).
